The values that follow come from US5625095A, “Process for producing high purity acetic acid” (Daicel Chemical Industries, Ltd., priority 1994, dated 1997).

The conditions of series [1]: cited from earlier work.
Series [2] in a line: solubility of metaldehyde in methyl iodide, alcohols and their mixtures. In kind it is physicochemical. The note with it: for recrystallization temperature: bottom products composition. As for the experimental part:
That is, distillation in the presence of alcohols has made it possible to prevent clogging.
It has been confirmed that in the composition of bottom products from the distillation column in the continuous production process for acetic acid, the recrystallization temperature is 18° C. at a methyl iodide/methanol weight ratio of 3/1, 12° C. at 5/4, 6° C. at 3/4, and -9° C. or lower at 1/2. The preferred methyl iodide/methanol weight ratio, which depends on a thermal insulation state, is 5/4 to 1/2.

On to `CC=O` [acetaldehyde], for which, in series [1], the miscibility with water result was “well miscible”.
As to `CC1OC(C)OC(C)OC(C)O1` (stereo not drawn) [metaldehyde], the dissolution in alcohols entry in series [2] (alcohols such as methanol, ethanol, and propanol) is given as “dissolved”. Also, the recrystallization temperature in series [2] (methyl iodide/methanol weight ratio 1/2) is no more than -9 °C; in series [2] (methyl iodide/methanol weight ratio 3/1), 18 °C; in series [2] (methyl iodide/methanol weight ratio 3/4), 6 °C; in series [2] (methyl iodide/methanol weight ratio 5/4), 12 °C. In series [2] (methyl iodide, acetaldehyde, methanol, mixed solution of methyl iodide and methanol), the “order of increasing solubilities” value was “methyl iodide<<acetaldehyde=methanol<mixed solution of methyl iodide and methanol”. Moreover, the solubility entry in series [2] (particularly to methyl iodide) is reported as “low solubility”.
With `CI` [methyl iodide], the miscibility with water result in series [1] was “scarcely miscible”.
